Patent publication US9156829B2, “Cycloalkyl and heterocycloalkyl compounds as orexin receptor antagonists” (Takeda Pharmaceutical Company Limited, priority 2014, dated 2015)

Legend:
human orexin receptor 1 = human orexin receptor 1 (Homo sapiens (Human), UniProt O43613); test: Orexin antagonist activity, intracellular calcium FLIPR assay, RBL-2H3 cells expressing human orexin receptor 1; assay type: cell-based; settings: RBL-2H3 cells stably expressing human orexin receptor 1; orexin-A at approx. 80% maximal response; compound added 15 minutes before; read-out: Human Orexin1R IC50
Sequence of human orexin receptor 1 (O43613 whole entry): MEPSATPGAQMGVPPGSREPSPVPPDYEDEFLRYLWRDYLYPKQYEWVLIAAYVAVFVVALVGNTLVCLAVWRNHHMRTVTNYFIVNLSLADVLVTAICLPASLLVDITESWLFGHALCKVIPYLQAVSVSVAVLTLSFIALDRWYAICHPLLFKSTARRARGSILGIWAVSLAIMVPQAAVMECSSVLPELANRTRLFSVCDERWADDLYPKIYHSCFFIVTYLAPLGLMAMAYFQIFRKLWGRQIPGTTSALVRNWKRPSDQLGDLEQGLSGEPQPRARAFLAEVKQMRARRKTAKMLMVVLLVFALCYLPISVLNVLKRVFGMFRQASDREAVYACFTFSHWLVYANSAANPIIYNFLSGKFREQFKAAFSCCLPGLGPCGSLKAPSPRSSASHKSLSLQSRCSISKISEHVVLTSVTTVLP

human orexin receptor 2 = human orexin receptor 2 (Homo sapiens (Human), UniProt O43614); test: Orexin antagonist activity, intracellular calcium FLIPR assay, RBL-2H3 cells expressing human orexin receptor 2; assay type: cell-based; settings: RBL-2H3 cells stably expressing human orexin receptor 2; orexin-A at approx. 80% maximal response; compound added 15 minutes before; read-out: Human Orexin2R IC50
Sequence of human orexin receptor 2 (O43614 whole entry): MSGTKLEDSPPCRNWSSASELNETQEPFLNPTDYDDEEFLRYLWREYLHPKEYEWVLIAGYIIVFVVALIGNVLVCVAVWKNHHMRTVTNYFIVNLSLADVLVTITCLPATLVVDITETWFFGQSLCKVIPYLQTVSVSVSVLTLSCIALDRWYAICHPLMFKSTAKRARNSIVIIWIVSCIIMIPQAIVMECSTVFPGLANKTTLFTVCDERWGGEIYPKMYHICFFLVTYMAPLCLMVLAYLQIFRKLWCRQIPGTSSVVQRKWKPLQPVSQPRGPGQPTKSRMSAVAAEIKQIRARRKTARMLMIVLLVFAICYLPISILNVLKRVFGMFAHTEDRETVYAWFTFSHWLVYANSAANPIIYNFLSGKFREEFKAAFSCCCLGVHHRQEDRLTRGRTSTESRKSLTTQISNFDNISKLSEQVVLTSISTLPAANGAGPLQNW

Compound | IC50 (human orexin receptor 1) [nM] | IC50 (human orexin receptor 2) [nM]
O=C(N[C@H]1CCC[C@@H]1Nc1cnc(C(F)(F)F)cn1)c1ncccc1Br [Example 28, 3-Bromo-N-[(1S,2S)-2-{[5-(trifluoromethyl)pyrazin-2-yl]amino}cyclopentyl]pyridine-2-carboxamide] | 776 | > 10000
CCOc1ccc(C)cc1C(=O)N[C@H]1CCC[C@@H]1Nc1cnc(C(F)(F)F)cn1 [Example 29, 2-Ethoxy-5-methyl-N-[(1S,2S)-2-{[5-(trifluoromethyl)pyrazin-2-yl]amino}cyclopentyl]benzamide] | 279 | > 10000
CCOc1ccc(C)nc1C(=O)N[C@H]1CCC[C@@H]1Nc1cnc(C(F)(F)F)cn1 [Example 30, 3-Ethoxy-6-methyl-N-[(1S,2S)-2-{[5-(trifluoromethyl)pyrazin-2-yl]amino}cyclopentyl]pyridine-2-carboxamide] | 370 | > 10000
O=C(N[C@H]1CCC[C@@H]1Nc1cnc(C(F)(F)F)cn1)c1ccccc1-n1cccn1 [Example 31, 2-(1H-Pyrazol-1-yl)-N-[(1S,2S)-2-{[5-(trifluoromethyl)pyrazin-2-yl]amino}cyclopentyl]benzamide] | 122 | > 10000
O=C(N[C@H]1CCC[C@@H]1Nc1cnc(C(F)(F)F)cn1)c1c(F)cccc1-n1nccn1 [Example 32, 2-Fluoro-6-(2H-1,2,3-triazol-2-yl)-N-[(1S,2S)-2-{[5-(trifluoromethyl)pyrazin-2-yl]amino}cyclopentyl]benzamide] | 32 | > 10000
O=C(N[C@H]1CCC[C@@H]1Nc1cnc(C(F)(F)F)cn1)c1c(F)cccc1F [Example 33, 2,6-Difluoro-N-[(1S,2S)-2-{[5-(trifluoromethyl)pyrazin-2-yl]amino}cyclopentyl]benzamide] | 890 | > 10000
COc1cccc(OC)c1C(=O)N[C@H]1CCC[C@@H]1Nc1cnc(C(F)(F)F)cn1 [Example 34, 2,6-Dimethoxy-N-[(1S,2S)-2-{[5-(trifluoromethyl)pyrazin-2-yl]amino}cyclopentyl]benzamide] | 523 | > 10000
O=C(N[C@H]1CCC[C@@H]1Nc1cnc(C(F)(F)F)cn1)c1ccccc1-n1ccnn1 [Example 35, 2-(1H-1,2,3-Triazol-1-yl)-N-[(1S,2S)-2-{[5-(trifluoromethyl)pyrazin-2-yl]amino}cyclopentyl]benzamide] | 693 | > 10000
O=C(N[C@H]1CCC[C@@H]1Nc1cnc(C(F)(F)F)cn1)c1cc(F)ccc1-n1nccn1 [Example 36, 5-Fluoro-2-(2H-1,2,3-triazol-2-yl)-N-[(1S,2S)-2-{[5-(trifluoromethyl)pyrazin-2-yl]amino}cyclopentyl]benzamide] | 207 | > 10000
COc1ccc(C)cc1C(=O)N[C@H]1CCC[C@@H]1Nc1cnc(C(F)(F)F)cn1 [Example 37, 2-Methoxy-5-methyl-N-[(1S,2S)-2-{[5-(trifluoromethyl)pyrazin-2-yl]amino}cyclopentyl]benzamide] | 340 | > 10000
O=C(N[C@H]1CCC[C@@H]1Nc1cnc(C(F)(F)F)cn1)c1ccccc1-c1ncccn1 [Example 38, 2-(Pyrimidin-2-yl)-N-[(1S,2S)-2-{[5-(trifluoromethyl)pyrazin-2-yl]amino}cyclopentyl]benzamide] | 49 | > 10000
O=C(N[C@H]1CCC[C@@H]1Nc1cnc(C(F)(F)F)cn1)c1cc(F)ccc1-c1ncccn1 [Example 39, 5-Fluoro-2-(pyrimidin-2-yl)-N-[(1S,2S)-2-{[5-(trifluoromethyl)pyrazin-2-yl]amino}cyclopentyl]benzamide] | 81 | > 10000
O=C(N[C@H]1CCC[C@@H]1Nc1cnc(C(F)(F)F)cn1)c1c(Cl)cccc1-n1nccn1 [Example 40, 2-Chloro-6-(2H-1,2,3-triazol-2-yl)-N-[(1S,2S)-2-{[5-(trifluoromethyl)pyrazin-2-yl]amino}cyclopentyl]benzamide] | 35 | > 10000
